Measured values as given in patent publication US20240166629A1, “HETEROCYCLIC COMPOUNDS CAPABLE OF ACTIVATING STING” (Boehringer Ingelheim International GmbH, priority 2022, published 2024).

How the values were obtained:
[1] = biological target: T1, human STING variant R232H (Homo sapiens, UniProt Q86WV6); test: THP1-Blue ISG IRF-inducible SEAP reporter assay, STING R232H-variant; type: cell-based; conditions: THP1-Blue ISG hSTING KO cells expressing STING R232H; 24 hours incubation
T1 construct: expressed in transfected cells; host or cells: THP1-Blue ISG hSTING KO clone, retroviral MSCV-ires-GFP-Blasti
T1 sequence (Q86WV6 whole entry, stated change not applied): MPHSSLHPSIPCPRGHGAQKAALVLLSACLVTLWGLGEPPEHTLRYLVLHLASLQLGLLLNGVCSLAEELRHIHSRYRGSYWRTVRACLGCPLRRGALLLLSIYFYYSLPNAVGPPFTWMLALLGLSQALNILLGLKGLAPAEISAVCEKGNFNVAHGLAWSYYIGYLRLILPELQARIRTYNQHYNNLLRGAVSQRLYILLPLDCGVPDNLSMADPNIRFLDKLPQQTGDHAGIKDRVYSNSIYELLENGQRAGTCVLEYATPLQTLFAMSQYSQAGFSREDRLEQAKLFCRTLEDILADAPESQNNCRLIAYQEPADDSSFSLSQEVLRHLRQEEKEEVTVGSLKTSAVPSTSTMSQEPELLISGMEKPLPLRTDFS
Text: (§1) Activation of the STING protein expressed in cell lines results in an increase of interferon production. By the stable integration of an interferon regulatory factor (IRF)-inducible SEAP gene (secreted embryonic alkaline phosphatase) reporter construct the functional interferon signaling pathway can be monitored. Using Invivogen's THP1-Blue™ ISG colorimetric enzyme assay and a suitable optical density (OD) reader the activity of SEAP can be detected and quantified. This technique could be used to characterize pharmacological modification of the STING pathway.
(§2) Several single nucleotide polymorphisms have been identified in the human STING gene. To determine the activity of the above described compounds, THP1-Blue™ ISG reporter cell lines expressing the different human STING variants have been generated. To do so, the endogenous human STING was first deleted using the CRISPR/CAS9 system: THP1-Blue ISG cells were electroporated with ALL-IN-ONE CRISPR plasmids targeting the STING gene (purchased from Sigma encoding the gRNA and GFP as a reporter gene for successful transduction). GFP positive cells then were sorted 24 h post transfection and expanded. Cells were then dispersed in semisolid methocel medium to allow single cell clone isolations. Clones were then screened for cGAMP responsiveness using the Quanti-Blue™ reporter assay. Non-responsive clones were subsequently analysed for STING loss by western blotting and sequencing of the STING locus.
(§3) For the overexpression of the human STING variants, a confirmed THP1-Blue™ ISG hSTING KO clone was transduced with individual retroviral plasmids (MSCV-ires-GFP-Blasti) encoding the allelic variants of hSTING (WT (H232R), HAQ, R232H, AQ and R293Q). Transduced cells were sorted for different levels of GFP fluorescence and STING allele expression was analysed by western blot.
(§4) Measurements of SEAP activity were performed in THP1-Blue™ ISG cells stably expressing the different human STING isoforms and the IRF-inducible SEAP reporter construct. Cells were cultivated in RPMI1640 medium with 10% fetal calf serum, 50 μg/ml Penicillin-Streptomycin, 100 μg/ml Zeocin, and 100 μg/ml Normocin in a 37°, 95% humidity and 5% CO2 incubator.
(§5) In preparation for the assay, the cells were distributed into the assay plates with a density of 10000 cells/15 μL per well. Compounds were prepared by an 8 point serial dilution in 50% aqueous DMSO and a final dilution step into medium to ensure a final DMSO concentration of 0.5% in the assay. 5 μL of diluted compounds were added to the plates, followed by a 24 hours incubation at 37° C.
(§6) At the day of the assay, 75 μl per well of Quanti-Blue™ reagent was added to all wells of the plate and the plate was incubated another 30 minutes at 37° C. The OD at 620 nm was measured on the EnVision reader (PerkinElmer).

in vitro = conditions: human, Caco-2, pH 7.4
Procedure: Caco-2 cells were obtained from Leibniz Institute DSMZ-German Collection of Microorganisms and Cell Cultures (Braunschweig, Germany) and cultured in DMEM (Dulbecco's modified Eagle medium) containing (in final concentrations) 10% FCS (fetal calf serum), 1% NEAA (non-essential amino acids), 2 mM Glutamin, 100 U/mL Penicillin and 100 μg/mL Streptomycin. Caco-2 cells were seeded either onto 24-well Transwell inserts (Corning, #3379) for bidirectional permeability assays at a density of 160,000 cells/cm^2 and cultured for 3 weeks, with media change on every second day.
For bidirectional permeability assays 10 mM DMSO stock solutions were diluted in transport buffer (final concentrations: 128.13 mM NaCl, 5.36 mM KCl, 1 mM MgSO4, 1.8 mM CaCl2, 4.17 mM NaHCO3, 1.19 mM Na2HPO4, 0.41 mM NaH2PO4, 15 mM 2-[4-(2-hydroxyethyl)piperazin-1-yl]ethanesulfonic acid (HEPES), 20 mM glucose, pH 7.4) containing 0.25% bovine serum albumin to a final concentration of 10 μM of the test compounds and added to the apical or basal compartment. Cells were incubated with the compounds for up to 2 h. Samples from the opposite compartment were taken at different timepoints.
Compound concentrations in the compartments were quantified using a RapidFire-based high-throughput HPLC/MS/MS system (high performance liquid chromatography/mass spectrometry; BioCius) that was customized to a fully automated and flexible platform, termed RIAS. In this modified setup, the sample was aspirated by a vacuum pump into a 10 μL sample loop for 250 ms and flushed onto a C4 cartridge (3.8 μL bed volume; BioCius) with the aqueous mobile phase (99.9% water, 0.09% formic acid, and 0.01% TFA; flow rate 1.5 mL/min). Prior to bioanalysis samples were spiked with internal standard solution and diluted with acetonitrile (ACN) for protein precipitation. Measurement was operated in multiplereaction monitoring (MRM) mode. Quantification was performed using external calibration. A solid-phase extraction step retained the analyte for 3000 ms while interfering matrix (e.g., buffer components) was removed. With a simple step gradient, the analyte was back-eluted from the cartridge for 3,000 ms with the organic mobile phase (99.9% acetonitrile/methanol [1:1, v:v], 0.09% formic acid, and 0.01% TFA) and flushed into the mass spectrometer at a flow rate of 1.25 mL/min. Afterwards, the cartridge was reequilibrated with the aqueous mobile phase for 500 ms (flow rate 1.5 mL/min). The RapidFire software and a customized control software were obtained from BioCius. QuickQuan 2.3, Xcalibur 2.0.7, and XDK 2.1.0.25 were used to operate the TSQ Vantage mass spectrometer (ThermoFisher, San Jose, CA) integrated to the RapidFire system. Mass spectral data-processing software QuickCalc 7.1.9 was purchased from ThermoFisher. The Master software for the RIAS was programmed in-house using LabVIEW (version 8.6.1; National Instruments, Austin, TX). Data analysis was performed in AssayExplorer 3.2 (Symyx, Sunnyvale, CA), and correlation plots were visualized in Spotfire version 2.2.0 (TIBCO, Palo Alto, CA).
Apparent permeability coefficients in the apical to basal direction (Papp,AB) and in the basal to apical direction (Papp,BA) and efflux ratios were calculated as follows:
Efflux ratio=Papp,BA/Papp,AB
where Q is the amount of compound recovered in the receiver compartment after the incubation time t, C0 the initial compound concentration given to the donor compartment, and s the surface area of the Transwell inserts. […] In addition, transepithelial electrical resistance (TEER) values are measured for each plate before the permeability assay, and total recovery in donor and receiver compartments was determined for each compound.

[2] = test system: Human STING (hSTING, UNIPROT entry Q86WV6, residues 155-341); test: Interaction with hSTING by differential scanning fluorimetry (DSF); type: binding; conditions: 100 μM test compound, 5 μM hSTING protein
Procedure: In DSF, the temperature at which a protein unfolds, also called the melting temperature Tm, is measured by changes in fluorescence of a dye that binds to the hydrophobic parts of the protein. Tm shifts upon binding of a small molecule are correlated with the binding affinity of this small molecule. As target protein, Human STING (hSTING, UNIPROT entry Q86WV6, residues 155-341, MW: 21578.4 Da; protein stock solution: c=1302 μM stock solution in 20 mM Tris, 100 mM NaCl, 2 mM TCEP pH 8.8) was used, as assay buffer 20 mM Tris, 150 mM NaCl pH7.5 was added where and as necessary.
Final concentrations of components in assay: 100 μM test compounds, 5 μM target protein, “5×” SYPR Orange (from stock solution SYPRO orange solution in DMSO (invitrogen cat.-no. 56650-500ul), concentration “5000×”)
Assay Procedure: • 1) Dilutions of compound stock solutions (10 mM in DMSO) were prepared in assay buffer (20 mM Tris, 150 mM NaCl; pH7.5) • 2) 5 μl fluorescent dye stock solution (5000×SYPRO Orange in DMSO) was mixed with 19 μl target protein (1302 μM) and 976 μl assay buffer. • 3) 2 μl of this protein-dye-mixture (25×SYPRO Orange and 25 μM Protein) was added to 8 μl diluted compound solution as prepared in step 1. Final volume was 10 μl. • 4) With every 20 compounds, two negative controls were measured. • 5) The plates were prepared for duplicate measurement and centrifuged for 2 min at 1000 g. • 6) For the measurement, a CFX384 Real-Time System (Bio-Rad) was used. The run consisted of 140 cycles with 0.5° C./cycle (temperature ramp 15 s/cycle, 25° C. to 95° C.).
Data analysis: The melting curves were processed in Bio-Rad CFX Manager. Peak type was set to “negative”. Two replicates of TM (melting temperature) measurements were averaged and the standard deviation was calculated.

human STING variant AQ = biological target: T2, human STING variant AQ (Homo sapiens, UniProt Q86WV6, G230A/H232R/R293Q); test: THP1-Blue ISG IRF-inducible SEAP reporter assay, STING AQ-variant; type: cell-based; conditions: THP1-Blue ISG hSTING KO cells expressing STING AQ; 24 hours incubation
T2 construct: expressed in transfected cells; host or cells: THP1-Blue ISG hSTING KO clone, retroviral MSCV-ires-GFP-Blasti
T2 sequence (Q86WV6 whole entry G230A/H232R/R293Q): as the sequence (Q86WV6 whole entry, stated change not applied) above, with G230A, H232R, R293Q counted along it
Text: as §1, §2, §3, §4, §5, §6

human STING variant HAQ = biological target: T3, human STING variant HAQ (Homo sapiens, UniProt Q86WV6, G230A/H232R/R293Q/R71H); test: THP1-Blue ISG IRF-inducible SEAP reporter assay, STING HAQ-variant; type: cell-based; conditions: THP1-Blue ISG cells expressing STING HAQ (parental or re-introduced); 24 hours incubation; SEAP OD 620 nm
T3 construct: expressed in transfected cells; host or cells: THP1-Blue ISG: either parental cells (endogenous HAQ) or hSTING KO clone retrovirally transduced with HAQ
T3 sequence (Q86WV6 whole entry R71H/G230A/H232R/R293Q): as the sequence (Q86WV6 whole entry, stated change not applied) above, with R71H, G230A, H232R, R293Q counted along it
Text: as §1, §2, §3, §4, §5, §6
Data of EC50 values on STING HAQ-variant can be found in table 2a. Shown data below were either derived from the parental THP1-Blue™ ISG cell lines (which express endogenously HAQ) or from genetically engineered THP1-Blue™ ISG cell lines in which first STING has been knocked-out and the HAQ specific STING isoform has been re-introduced as described above.

[3] = biological target: T4, human STING variant R293Q (Homo sapiens, UniProt Q86WV6, H232R/R293Q); test: THP1-Blue ISG IRF-inducible SEAP reporter assay, STING R293Q-variant; type: cell-based; conditions: THP1-Blue ISG hSTING KO cells expressing STING R293Q; 24 hours incubation
T4 construct: expressed in transfected cells; host or cells: THP1-Blue ISG hSTING KO clone, retroviral MSCV-ires-GFP-Blasti
T4 sequence (Q86WV6 whole entry H232R/R293Q): as the sequence (Q86WV6 whole entry, stated change not applied) above, with H232R, R293Q counted along it
Text: as §1, §2, §3, §4, §5, §6

[4] = biological target: T5, human STING variant H232R (WT) (Homo sapiens, UniProt Q86WV6, H232R); test: THP1-Blue ISG IRF-inducible SEAP reporter assay, STING H232R-variant; type: cell-based; conditions: THP1-Blue ISG hSTING KO cells expressing STING H232R; 24 hours incubation
T5 construct: expressed in transfected cells; host or cells: THP1-Blue ISG hSTING KO clone, retroviral MSCV-ires-GFP-Blasti
T5 sequence (Q86WV6 whole entry H232R): as the sequence (Q86WV6 whole entry, stated change not applied) above, with H232R counted along it
Text: as §1, §2, §3, §4, §5, §6

Molecule `Cc1cc(F)cc2c(-c3cccc4nn(C)cc34)nn(-c3ccc(N4CCC(C(=O)O)CC4)nc3)c12` [compound 4, 1-(5-(5-Fluoro-2′,7-dimethyl-1H,2′H-[3,4′-biindazol]-1-yl)pyridin-2-yl)piperidine-4-carboxylic acid] has an EC50 [1] of 300 nM, a Papp A→B at 10 μM (in vitro) of 19 ×10⁻⁶ cm/s and an efflux ratio at 10 μM (in vitro) of 1. For the same molecule, the “TM (changes in TM, thermal shift)” value [2] was 24 K, the EC50 (human STING variant AQ) was 300 nM and the EC50 (human STING variant HAQ) was 700 nM. It also gave an EC50 [3] of 500 nM and an EC50 [4] of 300 nM.
